{"source": "patent US9564604B2", "about": "“Fused polycyclic aromatic compounds, organic semiconductor material and thin film including the same, and method for producing an organic semiconductor device” (Nippon Kayaku Kabushiki Kaisha, priority 2012, dated 2017)", "key": {"[1]": {"test": "Solubility measurement in chloroform (saturated solution)", "assay_type": "physicochemical", "conditions": "mass percent concentration of saturated chloroform solution", "method": "Solubility was measured by using chloroform as solvent."}, "[2]": {"test": "CV (cyclic voltammetry) measurement in dichloromethane", "assay_type": "physicochemical", "conditions": "n-BuN4PF6 0.1 M, Pt electrodes, silver-silver chloride reference, 100 mV/sec", "method": "CV measurement was conducted by using dichloromethane as solvent, tetrabutylammonium hexafluorophosphate (n-BuN4PF6, 0.1 M) as a supporting electrolyte, platinum wires as working electrodes and counter electrodes, and a silver-silver chloride electrodes as reference electrodes, and by sweeping the electric potential at a rate of 100 mV/sec. In all Compounds 101, 110, 112, 136, 201, 210, 212, 214, and 236, two pairs of oxidation-reduction waves were observed."}}, "data": [{"smiles": "CCCCCCCCc1cc2c(=C(C#N)C#N)cc3c(cc(=C(C#N)C#N)c4cc(CCCCCCCC)sc43)c2s1", "note": "[Compound 110]", "values": [{"measurement": "Solubility in chloroform", "setting": "[1]", "value": 0.52, "unit": "w/w %"}, {"measurement": "first half-wave reduction potential", "setting": "[2]", "value": 0.06, "unit": "V"}, {"measurement": "second half-wave reduction potential", "setting": "[2]", "value": "−0.28", "unit": "V"}]}, {"smiles": "CCCCCCCCCCCCc1cc2c(=C(C#N)C#N)cc3c(cc(=C(C#N)C#N)c4cc(CCCCCCCCCCCC)sc43)c2s1", "note": "[Compound 112]", "values": [{"measurement": "Solubility in chloroform", "setting": "[1]", "value": 0.22, "unit": "w/w %"}, {"measurement": "first half-wave reduction potential", "setting": "[2]", "value": 0.06, "unit": "V"}, {"measurement": "second half-wave reduction potential", "setting": "[2]", "value": "−0.28", "unit": "V"}]}, {"smiles": "CC(C)[Si](c1cc2c(=C(C#N)C#N)cc3c(cc(=C(C#N)C#N)c4cc([Si](C(C)C)(C(C)C)C(C)C)sc43)c2s1)(C(C)C)C(C)C", "note": "[Compound 136]", "values": [{"measurement": "first half-wave reduction potential", "setting": "[2]", "value": 0.06, "unit": "V"}, {"measurement": "second half-wave reduction potential", "setting": "[2]", "value": "−0.28", "unit": "V"}]}, {"smiles": "N#CC(C#N)=c1cc2c3ccsc3c(=C(C#N)C#N)cc2c2ccsc12", "note": "[Compound 201]", "values": [{"measurement": "first half-wave reduction potential", "setting": "[2]", "value": 0.06, "unit": "V"}, {"measurement": "second half-wave reduction potential", "setting": "[2]", "value": "−0.28", "unit": "V"}]}, {"smiles": "CCCCCCCCc1cc2c(s1)c(=C(C#N)C#N)cc1c3cc(CCCCCCCC)sc3c(=C(C#N)C#N)cc21", "note": "[Compound 210]", "values": [{"measurement": "first half-wave reduction potential", "setting": "[2]", "value": 0.06, "unit": "V"}, {"measurement": "second half-wave reduction potential", "setting": "[2]", "value": "−0.28", "unit": "V"}]}, {"smiles": "CCCCCCCCCCCCc1cc2c(s1)c(=C(C#N)C#N)cc1c3cc(CCCCCCCCCCCC)sc3c(=C(C#N)C#N)cc21", "note": "[Compound 212]", "values": [{"measurement": "first half-wave reduction potential", "setting": "[2]", "value": 0.06, "unit": "V"}, {"measurement": "second half-wave reduction potential", "setting": "[2]", "value": "−0.28", "unit": "V"}]}, {"smiles": "CCCCCCCCCCCCCCCCc1cc2c(s1)c(=C(C#N)C#N)cc1c3cc(CCCCCCCCCCCCCCCC)sc3c(=C(C#N)C#N)cc21", "note": "[Compound 214]", "values": [{"measurement": "first half-wave reduction potential", "setting": "[2]", "value": 0.06, "unit": "V"}, {"measurement": "second half-wave reduction potential", "setting": "[2]", "value": "−0.28", "unit": "V"}]}]}
